Source: patent US20100108086A1, “TOBACCO AND TOBACCO PACKAGING MATERIAL FOR PREVENTING OR REDUCING TOBACCO-ASSOCIATED INJURY IN THE AERODIGESTIVE TRACT OF A SUBJECT” (Technion Research & Development Foundation Ltd, priority 2007, published 2010)

How the values were obtained:
oral peroxidase (OPO) = experiment: Oral peroxidase (OPO) activity in saliva, NBS-SCN assay; assay type: biochemical, human; conditions: for OPO activity in presence of aldehydes present in TS: 80 μM acrolein, 20 μM crotonaldehyde (FIG. 11)
lymphocytes [1] = experiment: Lymphocyte survival, Trypan Blue exclusion assay; assay type: cell-based, human; conditions: for % survival of TS + saliva-treated lymphocytes, Mean: 1 mM GSH; for death rates at 80 minutes / lymphocyte survival rates after 20 minutes: both, human
Method: Saliva collection: Saliva was collected from healthy subjects, 3 males and 3 females ranging from 21-47 years of age, under non-stimulatory conditions in a quiet room during the morning between 8 am and noon. Saliva collection was performed at least 1 h after eating by spitting into a recipient for 10 minutes, as previously described (43). Following collection, saliva was immediately centrifuged at 800×g for 10 min at 4° C. to remove cells and cell debris and the resulting supernatant was used for biochemical analyses.
(§1) Lymphocyte isolation: Blood from 10 consenting, healthy, non-smoking subjects, 5 males and 5 females ranging from 18-55 years of age, was drawn into EDTA-containing vacutainers. Lymphocytes were isolated by Ficoll-Hypaque (Sigma) gradient centrifugation according to the manufacturer's instructions and lymphocytes were suspended at 10^7 cells/ml PBS (Beit-Ha'emek Industries, Israel), and used immediately in experiments.
(§2) A reproducible vacuum was created in the flask and upon application of vacuum for 5 s, 80-100 ml of TS from the lit cigarette was drawn into the flask. […] Saliva treatment of lymphocytes was performed by suspending these in PBS supplemented with 30% (v/v) saliva. Following treatment with the TS of 0.5 cigarettes, flasks were incubated at 37° C. for 20 min in a metabolic shaker and subjected to a further 4 treatments with TS, as described above.
Measurement of lymphocyte survival: Lymphocyte viability was assessed by Trypan Blue exclusion assay.

lymphocytes [2] = experiment: Western immunoblotting analysis of lymphocyte protein carbonylation; assay type: cell-based, human
Description: Western immunoblotting analysis of protein carbonylation: Salivary proteins were separated by SDS-PAGE using a 10% gel and electro-blotted onto nitrocellulose membranes, as previously described (14). The Oxyblot Kit (Intergen Co, Purchase N.Y.) was used with anti-dinitrophenyhydrazine (DNPH) antibodies to label carbonylated proteins. Protein carbonylation levels were then visualized by reacting labelled blots with a secondary HRP-conjugated anti-rabbit antibody followed by ECL detection of secondarily labelled proteins, as previously described (14).
as §1
as §2, with “Treatment of lymphocytes with TS in the presence of saliva: Exposure of lymphocytes to TS was carried out by attaching a Time cigarette (capable of removing particles>[…] in diameter) in which the filter tip was removed to a Cambridge filter which was combined with a vacuum system to aspirate gas-phase TS inside sealed 250 ml flasks containing lymphocytes suspended in 12-15 ml PBS, as previously described (14, 15). A” for “A”
Western immunoblotting analysis of lymphocyte protein carbonylation: Lymphocytes were washed twice in PBS following treatment by centrifugation at 2,000 rpm for 2 minutes to remove saliva and other components of the incubation medium. Lymphocytes were then centrifuged at 14,000 rpm for 1 minute and lysed by sonication for 10 seconds in lysis buffer containing 20 mM Tris pH 7.4, 1 mM EGTA, 1 mM PMSF, 50 μM NaVO4 and 50 mM NaF. Lysates were centrifuged at 14,000 rpm for 1 minute and supernatants were harvested for analysis. Carbonylation analysis was performed as described above.

MPO = target: T1, MPO (Homo sapiens, UniProt P05164); experiment: Control MPO activity (commercial MPO) in presence of dapsone; assay type: biochemical; conditions: 150 μM dapsone
T1 construct: purchased
T1 sequence (P05164 49-745): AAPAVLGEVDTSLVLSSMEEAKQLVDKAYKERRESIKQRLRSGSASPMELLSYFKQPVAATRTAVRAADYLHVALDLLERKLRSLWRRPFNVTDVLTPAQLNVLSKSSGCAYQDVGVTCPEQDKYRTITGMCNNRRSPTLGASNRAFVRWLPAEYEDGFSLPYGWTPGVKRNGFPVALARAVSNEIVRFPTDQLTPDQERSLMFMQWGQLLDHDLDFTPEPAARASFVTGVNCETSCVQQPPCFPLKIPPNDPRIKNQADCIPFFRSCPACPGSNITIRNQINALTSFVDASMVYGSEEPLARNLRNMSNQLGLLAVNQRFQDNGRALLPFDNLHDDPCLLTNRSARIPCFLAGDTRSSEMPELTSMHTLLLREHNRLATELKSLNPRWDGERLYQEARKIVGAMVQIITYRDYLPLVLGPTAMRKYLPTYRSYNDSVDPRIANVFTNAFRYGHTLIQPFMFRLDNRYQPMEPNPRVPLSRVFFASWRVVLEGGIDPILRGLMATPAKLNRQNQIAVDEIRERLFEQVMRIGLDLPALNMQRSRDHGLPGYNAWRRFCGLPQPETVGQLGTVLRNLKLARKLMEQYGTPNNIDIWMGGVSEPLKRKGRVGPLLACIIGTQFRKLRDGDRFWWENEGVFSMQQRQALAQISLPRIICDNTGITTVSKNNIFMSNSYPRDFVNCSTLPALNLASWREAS
Method: FIG. 7 is a data plot depicting the effect of increasing concentrations of dapsone (4-aminophenylsulfone) on OPO activity in TS-treated saliva. Abbreviations: NO.1, NO.2, NO.3, NO4 and NO.5 correspond to saliva from 5 different subjects and plasma corresponds to commercial MPO.
Analysis of OPO activity: OPO activity was measured according to the 2-nitrobenzoic-thiocyanate (NBS-SCN) assay, as previously described (20). Briefly, DTNB is reduced to NBS by addition of β-mercaptoethanol and decreases in NBS concentration by reaction with OSCN^−, a product of OPO, are monitored spectrophotometrically by measuring absorbance at 412 nm at pH 5.6 (18). One unit of enzyme activity was defined as the activity required to cleave 1 μmol of NBS/min at 22° C., using a molar extinction coefficient of 12,800 (20).
Thus, in order to determine which of the MPO or SPO activity components of OPO activity are lost as a result of exposure to TS, OPO activity in TS-treated saliva was measured in the presence of increasing concentrations of […] dapsone.

[3] = TS + saliva, 1 mM agent, 80 minutes (FIG. 19)

[Cl][Fe]([Cl])[Cl] [FeCl3]
inhibition of OPO activity on exposure of saliva (oral peroxidase (OPO); 1 mM ascorbate or 100 μM FeCl3, 2 h (FIG. 10)): did not inhibit OPO activity

N[C@@H](CCC(=O)N[C@@H](CS)C(=O)NCC(=O)O)C(=O)O [GSH, L-γ-glutamyl-1-cysteine-glycine]
effect on death rate of lymphocytes exposed to TS and saliva (lymphocytes [1]): partially prevented
% survival of TS + saliva-treated lymphocytes, Mean (lymphocytes [1]; 20 minute treatment): 90.6%
% survival of TS + saliva-treated lymphocytes, Mean (lymphocytes [1]; 80 minute treatment): 28.8%
lymphocyte survival rate (lymphocytes [1]; GSH added in the presence of 20 μM crotonaldehyde, 20 minutes): 82.3%
lymphocyte survival rate (lymphocytes [1]; GSH added in the presence of 20 μM crotonaldehyde, 80 minutes): 81.3%
lymphocyte survival rate (lymphocytes [1]; GSH added in the presence of 80 μM acrolein, 20 minutes): 93.3%
lymphocyte survival rate (lymphocytes [1]; GSH added in the presence of 80 μM acrolein, 80 minutes): 87.4%
lymphocyte survival rate (lymphocytes [1]; GSH added in the presence of 2 mM acetaldehyde, 20 minutes): 93.3%
lymphocyte survival rate (lymphocytes [1]; GSH added in the presence of 2 mM acetaldehyde, 80 minutes): 93.6%
lymphocyte survival rate (lymphocytes [1]; TS + saliva, 1 mM agent, 20 minutes (FIG. 19)): 93.4%
lymphocyte survival rate (lymphocytes [1]; [3]): 24.3%
protection assessed by lymphocyte protein carbonylation levels (lymphocytes [2]; TS + saliva, 1 mM antioxidant, 20 minutes (FIG. 20)): unique protection
protein carbonylation levels in aldehyde-treated lymphocytes (lymphocytes [2]; aldehydes + 1 mM GSH, 20 min (FIG. 21)): protection
loss of OPO activity in TS-treated saliva in the presence or absence of agent (oral peroxidase (OPO); 1 mM agent (FIG. 9)): similar

N#C[S-].[K+] [KSCN, potassium thiocyanate]
protection against TS-induced loss of OPO activity (oral peroxidase (OPO)): significant protection against loss of OPO activity

CC(=O)N[C@@H](CS)C(=O)O [NAC, N-acetylcysteine]
effect on death rate of lymphocytes exposed to TS and saliva (lymphocytes [1]): did not alter the death rate

C/C1=C2/[N-][C@H]([C@H](CC(N)=O)[C@@]2(C)CCC(=O)NC[C@@H](C)OP(=O)([O-])O[C@H]2[C@@H](O)[C@@H](n3cnc4cc(C)c(C)cc43)O[C@@H]2CO)[C@]2(C)N=C(/C(C)=C3N=C(/C=C4N=C1[C@@H](CCC(N)=O)C\4(C)C)[C@@H](CCC(N)=O)[C@]\3(C)CC(N)=O)[C@@H](CCC(N)=O)[C@]2(C)CC(N)=O.[Co+3].[OH-] [OH—CO, hydroxocobalamin]
prevention of KCN-associated loss of OPO activity (oral peroxidase (OPO); 1 mM OH—CO, saliva treated 2 min with 1 mM KCN (FIG. 15)): completely prevent
prevention of loss of OPO activity in TS-treated saliva (oral peroxidase (OPO); increasing amounts of OH—CO (0.5, 1, 2 mM, FIG. 14), 40 min after treatment with TS): prevent, to a significant extent, the loss of OPO activity
prevention of TS- and KCN-associated loss of OPO activity (oral peroxidase (OPO); preincubation of saliva with OH—CO): could prevent both TS- and KCN-associated loss of OPO activity

CC=O [acetaldehyde]
death rates at 80 minutes (lymphocytes [1]): 92.7%

C=CC=O [acrolein]
lymphocyte survival rate (lymphocytes [1]; acrolein with saliva (second of the two 'respectively' values, order presumed)): 66.4%
lymphocyte survival rate (lymphocytes [1]; acrolein without saliva (first of the two 'respectively' values, order presumed)): 57.9%
death rates at 80 minutes (lymphocytes [1]): 57.3%
lymphocyte survival rates after 20 minutes (lymphocytes [1]): 63.3%
lymphocyte protein carbonylation levels (lymphocytes [2]; 80 μM acrolein + saliva vs acrolein alone, 20 min (FIG. 22)): did not enhance carbonylation levels
OPO activity in presence of aldehydes present in TS (oral peroxidase (OPO)): unaffected

O=C1O[C@H]([C@@H](O)CO)C(O)=C1O [ascorbate]
lymphocyte survival rate (lymphocytes [1]; ascorbate (1 mM) added to PBS containing iron as FeCl3 (90 μM), no saliva (FIG. 23, Column 8)): 77%
lymphocyte survival rate (lymphocytes [1]; ascorbate (1 mM) added to saliva-containing medium without TS, 20 min (FIG. 23, column 6)): 78%

C/C=C/C=O [crotonaldehyde]
death rates at 80 minutes (lymphocytes [1]): 75.3%
lymphocyte survival rates after 20 minutes (lymphocytes [1]): 80.3%
OPO activity in presence of aldehydes present in TS (oral peroxidase (OPO)): unaffected

Nc1ccc(S(=O)(=O)c2ccc(N)cc2)cc1 [dapsone, 4-aminophenylsulfone]
control MPO activity (MPO): unaffected
Loss of OPO activity (oral peroxidase (OPO); 150 μM dapsone, TS-treated saliva (FIG. 7)): 60-85%
loss of OPO activity in the presence or absence of agent (oral peroxidase (OPO); 150 μM dapsone, TS-treated saliva containing ~40% MPO (FIG. 8)): similar

CC(=O)N(O)CCCCCNC(=O)CCC(=O)N(O)CCCCCNC(=O)CCC(=O)N(O)CCCCCN [deferoxamine]
lymphocyte survival rate (lymphocytes [1]; [3]): 23.7%

O=c1[nH]c(=O)c2[nH]c(=O)[nH]c2[nH]1 [uric acid]
lymphocyte protein carbonylation levels (lymphocytes [2]; uric acid added to suspension medium instead of saliva, 10 or 100 μM, no TS (FIG. 18)): reduced carbonylation levels
